# Assay results reported in patent US20030162818A1, “Acylsulfonamide derivative” (AJINOMOTO CO. INC., priority 1997, published 2003).
# Experiments:
# [1] = system: HepG2 cells; experiment: Measurement of intracellular fatty acid synthesis inhibition activity (FA biosynthesis from [14C]-glucose); assay type: cell-based; conditions: Homo sapiens, 3.0 × 10^−5 M compound, 3 hours culture with [14C]-glucose
# Protocol: Measurement of Intracellular Fatty Acid Synthesis Inhibition Activity (FA Biosynthesis Inhibition Activity)
# Each of the compounds produced in the Examples was dissolved in DMSO and added to an experimental culture medium (DMEM; 0.05 μg/ml insulin, 0.1 mg/ml glucose and 18.5 kBq/ml [^14C]-glucose). The HepG2 cells were adjusted to a density of 0.75×10^6 cells/ml, inoculated into a 12 well plate in an amount of 1 ml/well and cultured overnight at 37° C. in an atmosphere of 5% CO2 (culture medium: DMEM, […] and 10% FBS), and the resulting cells were washed twice with PBS(−) buffer, mixed with the experimental culture medium in an amount of 0.5 ml/well and then cultured at 37° C. for 3 hours in an atmosphere of 5% CO2. After the culturing, the cells were washed twice with ice-cooled PBS(−) buffer and peeled off, and lipids were extracted from the resulting cells with a lipid extraction solution (chloroform:methanol=2:1). The extract was mixed with 2.5 ml of ethanol and 0.1 ml of 33% potassium hydroxide and incubated at 70° C. for 1 hour. Lipids were again extracted from the reaction mixture, and the extract was applied to a silica gel thin layer plate. This was developed with a developing solution (hexane:diethyl ether:acetic acid=80:20:1) and then the fatty acid iodine-coloring part was collected to measure its radioactivity using a liquid scintillation counter. The inhibition activity % (3.0×10^−5 M) of each compound was calculated.
# [2] = target: T1, acetyl-CoA carboxylase (ACC) (Rattus norvegicus, UniProt P11497); experiment: Measurement of ACC inhibition activity (14C-bicarbonate incorporation, ACC purified from rat liver); assay type: biochemical; conditions: 5.6 × 10^−6 M compound; ACC purified from SD rat liver
# T1 construct: subjected to decapitation and bloodletting under ether anesthesia to quickly take out the liver; from tissue; host or cells: rat liver (male SD rat, fasted then fed a high-sucrose feed)
# Protocol: After 2 days of fasting, a male SD rat of 12 weeks of age was allowed to feed on a high sucrose feed (67% sucrose, 17.1% casein, 9.8% cellulose, 5% sodium chloride, 0.1% choline chloride and 1% vitamins) for 2 days and then subjected to decapitation and bloodletting under ether anesthesia to quickly take out the liver. The thus obtained liver was sliced in an ice-cooled buffer A (225 mM mannitol, 75 mM sucrose, 10 mM Tris/HCl (pH 7.5), 0.05 mM EDTA-2Na, 5 mM potassium citrate, 2.5 mM MnCl2, 10 mg/l aprotinin, 10 mg/l leupeptin and 10 mg/l antitrypsin) and then, after removal of moisture, adjusted to 5 ml/g by adding the buffer A and homogenized for 4 minutes using Polytron homogenizer. This was centrifuged for 10 minutes at 1,000 g and then the resulting supernatant was subjected to 10 minutes of high speed centrifugation at 17,000 g.
# Ammonium sulfate was added to the thus obtained supernatant to a final concentration of 35%, and the mixture was stirred for 45 minutes and then subjected to 10 minutes of high speed centrifugation at 17,000 g. The thus obtained precipitate was mixed with 100 ml of a buffer B (100 mM Tris/HCl (pH 7.5), 0.5 M NaCl, 1 mM EDTA-2Na, 0.1 mM DTT, 10% glycerol, 10 mg/l aprotinin, 10 mg/l leupeptin and 10 mg/l antitrypsin) and subjected to 20 minutes of ultracentrifugation at 40,000, and the resulting supernatant was dialyzed overnight against 150 volumes of a buffer C (100 mM Tris/HCl (pH 7.5), 0.5 M NaCl, 1 mM EDTA-2Na, 0.1 mM DTT and 10% glycerol) and then filtered through a 5 μm filter. The filtrate was applied to a biotin affinity column, washed with the buffer B and then eluted with the buffer B supplemented with 5 mM biotin.
# 2. Measurement of ACC Inhibition Activity
# Each of the compounds produced in the Examples was dissolved in DMSO, and the solution was put into a glass vial, mixed with 250 μl of an ACC-containing reagent 1 (40 mM Tris/HCl (pH 7.5), 40 mM MgCl2, 40 mM sodium citrate, 2 mM DTT and 100 μg/ml fatty acid-free BSA),incubated at 37° C. for 30 minutes in a thermostatic chamber, cooled with ice, mixed with 250 μl of a reagent 2 (40 mM Tris/HCl (pH 7.5), 2 mM DTT, 8 mM ATP and 0.5 mM acetyl-CoA) containing 74 kBq of NaH^14CO3, again incubated at 37° C. for 10 minutes in a thermostatic chamber and then mixed with 0.1 ml of 1 N HCl to terminate the reaction. After complete removal of moisture in the glass vial under a reduced pressure, an emulsified scintillator (Cleasol I) was added to the glass vial, and the ^14C radioactivity was measured using a liquid scintillation counter. […]
# Inhibition activity ratio (%)=(1−radioactivity when a drug to be tested is added/radioactivity when the drug to be rested is not added)×100
Structure (SMILES),inhibition at 30 µM [1] [%],melting point [°C],inhibition at 5.6 µM [2] [%]
"CCCCCCCCCC(=O)NS(=O)(=O)c1ccccc1NC(=O)c1ccc([N+](=O)[O-])c(OCc2ccccc2)c1 [Example 16, N-[2-(3-Benzyloxy-4-nitrobenzamido)benzenesulfonyl]decanamide]",94.3,129 to 130,79.9
"CCCCCC(=O)NS(=O)(=O)c1ccccc1NC(=O)c1cccc(OCC2CCCCC2)c1 [Example 27, N-[2-(3-Cyclohexylmethoxybenzamido)benzenesulfonyl]hexanamide]",–,112 to 113,–
"O=C(Nc1ccccc1S(=O)(=O)NC(=O)c1ccc(F)cc1F)c1cccc(OCc2ccccc2)c1 [Example 11, N-[2-(3-Benzyloxybenzamido)benzenesulfonyl]-2,4-difluorobenzamide]",–,208 to 209,–
O=C(NS(=O)(=O)c1ccccc1NC(=O)c1cccc(OCc2ccccc2)c1)Oc1ccccc1,–,163 to 164,–
"CCCCCCCCCC(=O)NS(=O)(=O)c1ccccc1NC(=O)c1cccc(OCC2CCCCC2)c1 [Example 28, N-[2-(3-Cyclohexylmethoxybenzamido)benzenesulfonyl]decanamide]",84.6,124 to 127,89.4
"CCCCCC(=O)NS(=O)(=O)c1ccccc1NC(=O)c1cccc(OCc2ccccc2)c1 [Example 8, N-[2-(3-Benzyloxybenzamido)benzenesulfonyl]-n-hexanamide]",–,133 to 134,–
"CCCCCC(=O)NS(=O)(=O)c1ccccc1NC(=O)c1cccc(OCc2ccc(OC)cc2)c1 [Example 24, N-[2-[3-(4-Methoxybenzyloxy)benzamido]benzenesulfonyl]hexanamide]",–,154 to 157,–
"CCCCCCCOc1cccc(C(=O)Nc2ccccc2S(=O)(=O)NC(=O)CCCCC)c1 [Example 36, N-[2-(3-Heptyloxybenzamido)benzenesulfonyl]hexanamide]",–,200 to 201,–
CCCCNC(=O)NS(=O)(=O)c1ccccc1NC(=O)c1cccc(OCc2ccccc2)c1,–,177 to 178,–
"CCCCCC(=O)NS(=O)(=O)c1ccccc1NC(=O)c1cccc(OCc2ccc(C(F)(F)F)cc2)c1 [Example 33, N-[2-[3-(4-Trifluoromethylbenzyloxy)benzamido]benzenesulfonyl]hexanamide]",97.5,142 to 143,52.3
"O=C(Nc1ccccc1S(=O)(=O)NC(=O)c1ccc(C(F)(F)F)cc1)c1cccc(OCc2ccccc2)c1 [Example 4, N-[2-(3-Benzyloxybenzamido)benzenesulfonyl]-4-trifluoromethylbenzamide]",–,220 to 221,–
"O=C(Nc1ccccc1S(=O)(=O)NC(=O)c1ccc([N+](=O)[O-])cc1)c1cccc(OCc2ccccc2)c1 [Example 5, N-[2-(3-Benzyloxybenzamido)benzenesulfonyl]-4-nitrobenzamide]",–,233 to 234,–
"CCCCCC(=O)NS(=O)(=O)c1ccccc1NC(=O)c1cccc(OCc2ccc(C(C)(C)C)cc2)c1 [Example 30, N-[2-[3-(4-t-Butylbenzyloxy)benzamido]benzenesulfonyl]hexanamide]",87.1,163 to 164,53.2
"CCCCC/C=C\C/C=C\CCCCCCCC(=O)NS(=O)(=O)c1ccccc1NC(=O)c1cccc(OCc2ccccc2)c1 [Example 15, N-[2-(3-Benzyloxybenzamido)benzenesulfonyl]linolamide]",30.6,–,84.8
"COc1ccc(COc2cccc(C(=O)Nc3ccccc3S(=O)(=O)NC(C)=O)c2)cc1 [Example 23, N-[2-[3-(4-methoxybenzyloxy)benzamido]benzenesulfonyl]acetamide]",–,114 to 117,–
"O=C(Nc1ccccc1S(=O)(=O)NC(=O)c1ccccc1)c1cccc(OCc2ccccc2)c1 [Example 2, N-[2-(3-Benzyloxybenzamido)benzenesulfonyl]benzamide]",43.8,201 to 202,60.7
"COc1ccc(C(=O)NS(=O)(=O)c2ccccc2NC(=O)c2cccc(OCc3ccccc3)c2)cc1 [Example 6, N-[2-(3-Benzyloxybenzamido)benzenesulfonyl]-4-methoxybenzamide]",–,189 to 190,–
"CCCCCCCOc1cccc(C(=O)Nc2ccccc2S(=O)(=O)NC(C)=O)c1 [Example 35, N-[2-(3-Heptyloxybenzamido)benzenesulfonyl]acetamide]",–,194 to 195,–
"CC(C)=CC(=O)NS(=O)(=O)c1ccccc1NC(=O)c1ccc(C#Cc2ccccc2)cc1 [Example 42, 3-Methyl-N-[2-(4-phenylethynylbenzamido)benzenesulfonyl]-2-butenamide]",–,187 to 188,–
"CC(=O)NS(=O)(=O)c1ccccc1NC(=O)c1cccc(OCc2ccc(C(F)(F)F)cc2)c1 [Example 32, N-[2-[3-(4-Trifluoromethylbenzyloxy)benzamido]benzenesulfonyl]acetamide]",–,164 to 165,–
"CC(=O)NS(=O)(=O)c1ccccc1NC(=O)c1ccc(C#Cc2ccccc2)cc1 [Example 38, N-[2-(4-Phenylethynylbenzamido)benzenesulfonyl]acetamide]",–,214 to 215,–
"CCCCCC(=O)NS(=O)(=O)c1ccccc1NC(=O)c1cccc(OCc2ccc(Cl)cc2)c1 [Example 18, N-[2-[3-(4-Chlorobenzyloxy)benzamido]benzenesulfonyl]hexanamide]",–,148 to 149,–
"CC(=O)NS(=O)(=O)c1ccccc1NC(=O)c1cccc(OCc2ccccc2)c1 [Example 3, N-[2-(3-Benzyloxybenzamido)benzenesulfonyl]acetamide]",–,195 to 196,–
"CC(=O)NS(=O)(=O)c1ccccc1NC(=O)c1cccc(OCc2ccc(C(C)(C)C)cc2)c1 [Example 29, N-[2-[3-(4-t-Butylbenzyloxy)benzamido]benzenesulfonyl]acetamide]",–,190 to 191,–
"CC(C)(C)C(=O)NS(=O)(=O)c1ccccc1NC(=O)c1cccc(OCc2ccc(C(C)(C)C)cc2)c1 [Example 12, N-[2-[3-(4-t-Butylbenzyloxy)benzamido]benzenesulfonyl]pivalamide]",–,193 to 194,–
"CC(C)(C)C(=O)NS(=O)(=O)c1ccccc1NC(=O)c1ccc(C#Cc2ccccc2)cc1 [Example 41, N-[2-(4-Phenylethynylbenzamido)benzenesulfonyl]pivalamide]",–,236 to 237,–
"CCCCCC(=O)NS(=O)(=O)c1ccccc1NC(=O)c1cccc(OCc2ccc([N+](=O)[O-])cc2)c1 [Example 21, N-[2-[3-(4-Nitrobenzyloxy)benzamido]benzenesulfonyl]hexanamide]",–,138 to 141,–
CCCCCCCCNC(=O)NS(=O)(=O)c1ccccc1NC(=O)c1cccc(OCc2ccccc2)c1,–,124 to 125,–
"O=C(Nc1ccccc1S(=O)(=O)NC(=O)c1cccc(OCc2ccccc2)c1)c1cccc(OCc2ccccc2)c1 [Example 1, N-[2-(3-Benzyloxybenzamido)benzenesulfonyl]-3-benzyloxybenzamide]",–,172 to 173,–
